Test results taken from patent US10617734B2, “STAT3 and ERK signal pathway inhibitor comprising mogrosides and analogs thereof” (BEIJING UNIVERSITY OF AGRICULTURE, priority 2014, dated 2020).

Legend:
leukemia cells K562 = experiment: Cell apoptosis, Annexin V-FITC/PI, flow cytometer; type: cell-based, human; conditions: leukemia cells K562, 10 μmol/L, 24 h
Method: Lymphoma U937 cells, human melanoma A875 cells and leukemia cells K562 in logarithmic growth phase were selected, and after the respective culture with 0 and 10 μmol/L of the mogrosides and analogs thereof (i.e. Mogroside I E1, Mogroside II A2 and mogrol) for 24 h, cells were collected and washed twice with 200 μl of cold PBS, and then the cells were collected again; 100 μl of binding buffer was added for re-suspending the cells, and after the addition of 2 μl of Annexin V-FITC and well mixing, the resulting mixture was placed in dark at room temperature for 10 min, and then 5 μl of propidium iodide (PI) was added and then well mixed; the mixture was placed in dark at room temperature for 10 min, and detected by flow cytometer, and the results are shown in FIGS. 13-15.

[1] = system: phosphorylated ERK1/2 (P-ERK1/2); experiment: Western Blotting of phosphorylated ERK1/2 in K562 cells; type: cell-based, human; conditions: leukemia cells K562, 10 μmol/L, 24 hours
Method: The inhibition of the STAT3 and ERK signal pathways achieved by Mogroside I E1, Mogroside II A2 and mogrol was detected by Western Blotting, specifically:
Group 3: leukemia cells K562 (1×10^6 cells/well) were inoculated into a 6-well culture plate for staying overnight, and 0 and 10 μmol/L of Mogroside I E1 Mogroside II A2 and mogrol were added respectively, and the culture was continued for 24 hours;
After the termination of the cell culture, the culture solution was removed, and the residue was washed with PBS (0.01 mol/L, pH 7.4), and then a cell lysis solution containing protease inhibitors was added at an amount of 50 μl/well, and the mixture was placed in an ice bath for lysis at 4° C. for 30 min and then centrifuged at 14000 r/min for 10 min, and then total proteins were obtained from the supernatant;
The protein concentrations were measured with bovine serum albumin (BSA) as the standard. 50 μg of the total proteins was separated by polyacrylamide gel electrophoresis with 12% […], electrophoretically transferred to a PVDF membrane (polyvinylidene fluoride membrane), and blocked for 1 h by 5% of skim milk (containing 0.1% of Tween 20), and then antibodies p-STAT3 (Tyr705) and p-Erk1/2 as well as β-actin were added, and the primary antibody was incubated at 4° C. overnight (β-actin was used as reference in loading amount); the membrane was washed for 3 times with TBS-T, 5 min each time; secondary antibody marked by horseradish peroxidase (HRP) was added for incubation at room temperature for 1 h, the membrane was washed for 3 times with a wash solution (TBS-T), 10 min each time, and then ECL was added for incubation in dark for 5 min, and subsequently, a fluorescence imaging analyzer was used for image development and scanning analysis, and the results of Western Blotting detection are shown in FIGS. 4 to 6.

[2] = system: human melanoma A875 cells; experiment: Cell morphology, Hoechst 33258 staining, fluorescence microscope; type: cell-based; conditions: A875 melanoma cells, 10, 100 and 250 μmol/L, 24-hour culture
Method: (§1) Lymphoma U937 cells, human melanoma A875 cells and leukemia cells K562 in logarithmic growth phase were selected, and the concentrations of the cells were adjusted to 1×10^4 cells/mL, and the cells were transferred to a 6-well plate for culture, and after the 24-hour culture, drugs were added to achieve final concentrations of 0, 10, 100 and 250 μmol/L, wherein only whole medium was added to the negative control groups, while Mogroside II A2 was added to the positive control groups, after 24-hour culture, waste solution was removed, and fixing solution was added to each well for fixing for 25 min, and then the resulting mixture was washed twice, 3 min each time, and then Hoechst 33258 staining solution was added for staining in dark at room temperature for 30 min, and the cell morphology variation was observed using a fluorescence microscope.

lymphoma U937 cells = experiment: as above; type: cell-based; conditions: lymphoma U937 cells, 10, 100 and 250 μmol/L, 24-hour culture
Method: as §1

C[C@H](CC[C@@H](O)C(C)(C)O)[C@H]1CC[C@@]2(C)[C@@H]3CC=C4[C@@H](CC[C@H](O)C4(C)C)[C@]3(C)[C@H](O)C[C@]12C [mogrol]
cell apoptosis (leukemia cells K562): induce the apoptosis
expression level of phosphorylated ERK1/2 (P-ERK1/2) [1]: significantly decreased
cell morphology variation (Hoechst 33258) [2]: identical to the results of Mogroside II A2
cell morphology variation (Hoechst 33258) (lymphoma U937 cells): identical to the results of Mogroside II A2
